Measured values published in patent publication US20260151467A1, “METHOD FOR TREATING CANCER” (THE CHILDREN'S MEDICAL CENTER CORPORATION, priority 2018, published 2026).

How the values were obtained:
CCRF-CEM cells = test: Viable cell counts (trypan blue) of CCRF-CEM cells treated with asparaginase and other agents; assay type: cell-based, human; details: for effect on Wnt-induced sensitization to asparaginase: shRNA-transduced cells, rapamycin 1 nM, RAD001 10 nM, AZD2014 10 nM; for sensitization to asparaginase by isoform-selective GSK3 inhibitor: 8 days (FIG. 4a)
Description: (§1) Cells (25,000 per well) were seeded in 100 μl of complete growth medium in 96-well plates and incubated with chemotherapeutic agents or vehicle. T-ALL cells were split every 48 hours in a 1:5 ratio. Briefly, 20 μl of cells were mixed with 80 μl fresh culture medium, supplemented with vehicle or chemotherapeutic drugs at the indicated doses. AML cells were split every 72 hours as described above. Cell viability was assessed by counting viable cells based on trypan blue vital dye staining (Invitrogen), according to the manufacturer's instructions. Chemotherapeutic drugs included: PEG-asparaginase (“oncaspar”, Shire, Lexington, MA), dexamethasone (Sigma-Aldrich), vincristine (Selleckchem, Houston, TX), doxorubicin (Sigma-Aldrich), 6-mercaptopurine (Abcam, Cambridge, UK), CHIR99021 (Selleckchem), bortezomib (Selleckchem), rapamycin (Selleckchem), RAD001 (Selleckchem), AZD2014 (Selleckchem), and Wnt3A (R&D systems, Minneapolis, MN). BRD0705 and […] were synthesized as described^15. Caspase 3/7 activity was assessed using the Caspase Glo 3/7 Assay (Promega, Madison, WI) according to the manufacturer's instructions.

Apc-deficient organoids = test: Chemotherapy response in mouse intestinal organoids, Apc-deficient; assay type: cell-based; details: asparaginase 100 U/L, BRD0705 1 μM or both, 10 days
Description: For assessment of chemotherapy response in mouse intestinal organoids, Apc-deficient and Rspo3 fusion organoids were cultured in basal organoid medium (medium not containing murine Wnt3A, murine Noggin and human R-spondin1 protein). A full 0.95 cm2 well of organoids was split into new wells, aiming to obtain approximately 25 organoids per well. Organoids were split according to previously published protocols (O'Rourke et al., 2016). Matrigel and basal organoid culture medium were supplemented with vehicle or chemotherapeutic agents, and split every 48 hours. After 10 days in culture, total organoid numbers per wells were counted by light microscopy. Microscopy was performed using an 100× objective on an Axio Imager A1 microscope (Zeiss, Oberkochen, Germany), with images captured using a CV-A10 digital camera (Jai, Yokohama, Japan) and Cytovision software (Leica Biosystems, Wetzlar, Germany).
Organoids touching the edge of a well were excluded from counting. Images were taken from a representative of three independent experiments and analyzed with ImageJ Software (Schneider et al., 2012).

HCT-15 cells = test: Chemotherapy response of colon cancer cell lines (trypan blue counts), HCT-15; assay type: cell-based, human; details: 10 days; Rspondin3 75 ng/ml and Wnt3a 100 ng/ml; inhibitors 1 μM
Description: (§2) Cells (100,000 per well) were seeded in […] of complete growth medium in 12-well plates and incubated with chemotherapeutic agents or vehicle. Cells were split every 48 hours and cell viability was assessed by counting viable cells based on trypan blue vital dye staining (Invitrogen), according to the manufacturer's instructions. Chemotherapeutic drugs included: asparaginase (pegaspargase, Shire, Lexington, MA), CHIR99021 (Selleckchem), recombinant human Wnt3A protein (R&D systems, Minneapolis, MN) and recombinant human R-Spondin 3 protein (R&D systems, Minneapolis, MN). BRD0705 and BRD3731 were synthesized as described (Wagner et al., 2018). Caspase 3/7 activity was assessed using the Caspase Glo 3/7 Assay (Promega, Madison, WI) according to the manufacturer's instructions.

[1] = test system: asparaginase-resistant T-ALL patient-derived xenograft; test: T-ALL patient-derived xenograft in NRG mice, survival; assay type: in vivo, mouse
Description: Mice were exposed to a sub-lethal dose of radiation (4.5 Gy) and subsequently injected with human leukemia cells. All injections were performed by tail vein injection. Blood collections were performed to monitor leukemia onset in mice injected with leukemic cells, which was assessed by staining for human CD45 expression using anti-human CD45-PE-Cy7 (1:400, BD #560915) antibody staining. As soon as leukemia engraftment was confirmed based on ≥5% human leukemia cells in the peripheral blood, treatment of mice was begun. Asparaginase (1,000 U/kg) or PBS were injected by tail vein injection as a single dose on day 1 of drug treatment, and BRD0705 (15 mg/kg) or vehicle were given every 12 hours for 12 days by oral gavage. Vehicle was formulated as previously described.^15 Mice were anesthetized with isoflurane (Patterson Veterinary, Greeley, CO) prior to gavage. After start of treatment, body weight was monitored every third day. To assess bilirubin levels, mandibular blood vein collection was performed, and bilirubin levels were measured in the Boston Children's Hospital clinical laboratory. The primary endpoint of this experiment was survival. Mice were euthanized as soon as they developed weight loss greater than 15% or signs/symptoms of progressing disease. Post-mortem analysis of leukemic burden was performed by extracting bone marrow cells, which were filtered through a […] mesh filter and red blood cells were lysed using the BD Biosciences Red Blood Cell Lysis reagent (BD #555899). Isolated bone marrow cells were stained for assessment of leukemic burden using following antibodies from BD Biosciences: Anti-human CD4-APC-Cy7 (1:100, BD #561839) and anti-human CD8-PerCP-Cy5.5 (1:100, BD #560662).

[2] = test system: APC-mutant CRC patient-derived xenograft; test: APC-mutant human CRC patient-derived xenograft in nude mice; assay type: in vivo, mouse; details: asparaginase 1000 U/kg×1 dose; BRD0705 every 12 hours×21 days
Description: For implantation of APC mutant human CRC PDX, patient tumor material was collected in PBS and kept on wet ice for engraftment within 24 h after resection. Upon arrival, necrotic and supporting tissues were carefully removed using a surgical blade. Approximately 1 mm×1 mm tissue fragments were implanted subcutaneously into the flank region of male nude mice, as described (Bullman et al., 2017). For injection of intestinal organoids (Rspo3; p53; Kras, or Apc; p53; Kras), per mouse one full […] well of organoids was injected subcutaneously.
As soon as tumors reached a volume of approximately 150 mm3, treatment of mice was begun. […] Vehicle was formulated as previously described (Wagner et al., 2018).
After start of treatment, body weight and tumor size were evaluated every other day. Tumor size was assessed by caliper measurements and the approximate volume of the mass was calculated using the formula (l×w×w)×(π/6), where 1 is the major tumor axis and w is the minor tumor axis.

SW-480 cells = test: Chemotherapy response of colon cancer cell lines (trypan blue counts), SW-480; assay type: cell-based, human; details: 10 days; Rspondin3 75 ng/ml and Wnt3a 100 ng/ml; inhibitors 1 μM
Description: as §2

[3] = test system: T-ALL, acute myeloid leukemia and hypodiploid B-ALL cell lines; test: Asparaginase sensitization across a panel of treatment-resistant acute leukemia cell lines (trypan blue counts); assay type: cell-based, human; details: CHIR99021 1 μM, 8 days
Description: as §1

[4] = test system: normal human CD34+ hematopoietic progenitors; test: Viable cell counts of normal CD34+ hematopoietic progenitors; assay type: cell-based; details: CHIR99021 1 μM, day 4
Description: Cell lines and cell culture. 293T cells, T-ALL cell lines, AML cell lines and B-ALL cell lines were obtained from ATCC (Manassas, VA, USA), DSMZ (Braunschweig, Germany), the A. Thomas Look laboratory (Boston, MA, USA) or Alex Kentsis laboratory (New York, NY, USA) and cultured in DMEM, RPMI 1640 or MEM alpha (Thermo Fisher Scientific) with 10% or 20% fetal bovine serum (FBS, Sigma-Aldrich, Saint Louis, MO) or TET system approved FBS (Clontech, Mountain View, CA) and 1% penicillin/streptomycin (Thermo Fisher Scientific) at 37° C., 5% CO2. Human CD34+ progenitor cells from mobilized peripheral blood of healthy donors were obtained from Fred Hutchinson Cancer Research Center (Seattle, WA, USA) (e.g., found on the world wide web at sharedresources.fredhutch.org/products/cd34-cells). […]
Cells (25,000 per well) were seeded in 100 μl of complete growth medium in 96-well plates and incubated with chemotherapeutic agents or vehicle. […] Cell viability was assessed by counting viable cells based on trypan blue vital dye staining (Invitrogen), according to the manufacturer's instructions. […] Caspase 3/7 activity was assessed using the Caspase Glo 3/7 Assay (Promega, Madison, WI) according to the manufacturer's instructions.

CCD-841 cells = test: Viable cell counts of normal colonic epithelium cells; assay type: cell-based, human; details: CHIR99021 1 μM, 10 days
Description: as §2

CNC(=O)c1cccc(-c2ccc3c(N4CCOC[C@@H]4C)nc(N4CCOC[C@@H]4C)nc3n2)c1 [AZD2014]
effect on Wnt-induced sensitization to asparaginase (CCRF-CEM cells; 8 days): had no effect

CC[C@@]1(c2ccccc2)C2=C(CC(C)(C)CC2=O)Nc2[nH]ncc21 [BRD0705]
sensitization to asparaginase by isoform-selective GSK3 inhibitor (CCRF-CEM cells): effectively sensitizes | toxicity to organoids (viable organoid count) (Apc-deficient organoids): little toxicity | sensitization to asparaginase (HCT-15 cells): sensitized | difference in survival between vehicle and monotherapy groups (log-rank) ([1]; FIG. 4D, Kaplan-Meier): not significant | efficacy against xenograft (survival) ([1]; asparaginase 1,000 U/kg i.v. single dose, BRD0705 15 mg/kg oral gavage every 12 hours for 12 days): highly resistant | activity on tumor growth [2]: no activity | sensitization to asparaginase (SW-480 cells): sensitized

CC(C)(C)Cc1[nH]nc2c1[C@](C)(c1ccccc1)C1=C(CC(C)(C)CC1=O)N2 [BRD3731]
sensitization to asparaginase by isoform-selective GSK3 inhibitor (CCRF-CEM cells): only modest effects | sensitization to asparaginase (HCT-15 cells): had little effect | sensitization to asparaginase (SW-480 cells): had little effect

Cc1c[nH]c(-c2cnc(NCCNc3ccc(C#N)cn3)nc2-c2ccc(Cl)cc2Cl)n1 [CHIR99021]
asparaginase sensitization [3]: induced significant asparaginase sensitization | sensitization to other antileukemic drugs (CCRF-CEM cells; CHIR99021 1 μM, 8 days, vincristine, 6-mercaptopurine, dexamethasone, doxorubicin): Nor did it sensitize leukemic cells to other commonly used antileukemic drugs | toxicity of asparaginase to normal progenitors with GSK3 inhibitor [4]: did not increase the toxicity of asparaginase | toxicity of GSK3 inhibition combined with asparaginase to normal colonic cells (CCD-841 cells): little toxicity | sensitization to asparaginase (HCT-15 cells): sufficient to induce asparaginase sensitization | sensitization to asparaginase (SW-480 cells): sufficient to induce asparaginase sensitization

CO[C@H]1C[C@@H]2CC[C@@H](C)[C@@](O)(O2)C(=O)C(=O)N2CCCC[C@H]2C(=O)O[C@H]([C@H](C)C[C@@H]2CC[C@@H](OCCO)[C@H](OC)C2)CC(=O)[C@H](C)/C=C(\C)[C@@H](O)[C@@H](OC)C(=O)[C@H](C)C[C@H](C)/C=C/C=C/C=C/1C [RAD001]
effect on Wnt-induced sensitization to asparaginase (CCRF-CEM cells; 8 days): had no effect

CC(C)C[C@H](NC(=O)[C@H](Cc1ccccc1)NC(=O)c1cnccn1)B(O)O [bortezomib]
single-agent toxicity (CCRF-CEM cells; 10 nM dose): lacked single-agent toxicity | sensitization to asparaginase by proteasome inhibition (CCRF-CEM cells; bortezomib 10 nM, 8 days): phenocopied Wnt-induced sensitization to asparaginase | toxicity (viability), dose range (CCRF-CEM cells; indicated doses, 48 hours (FIG. 10)): highly toxic at intermediate doses

B1: Wnt3A: Wnt ligand, recombinant protein (R&D systems) (protein, UniProt P56704 19-352, looked up)
Protein Wnt-3a: SYPIWWSLAVGPQYSSLGSQPILCASIPGLVPKQLRFCRNYVEIMPSVAEGIKIGIQECQHQFRGRRWNCTTVHDSLAIFGPVLDKATRESAFVHAIASAGVAFAVTRSCAEGTAAICGCSSRHQGSPGKGWKWGGCSEDIEFGGMVSREFADARENRPDARSAMNRHNNEAGRQAIASHMHLKCKCHGLSGSCEVKTCWWSQPDFRAIGDFLKDKYDSASEMVVEKHRESRGWVETLRPRYTYFKVPTERDLVYYEASPNFCEPNPETGSFGTRDRTCNVSSHGIDGCDLLCCGRGHNARAERRREKCRCVFHWCCYVSCQECTRVYDVHTCK
sensitization to asparaginase by Wnt ligand (CCRF-CEM cells; 100 ng/ml Wnt3A, 8 days): phenocopied
